Measurements: paper PMC5846083 (Journal of Medicinal Chemistry, 2018)

Experiments:
Na,K-ATPase α4 = Na,K-ATPase α4 (Rattus norvegicus, UniProt Q64541); test: Inhibition of Na,K-ATPase α4 activity; format: biochemical; conditions: for loss of Na,K-ATPase α4 inhibitory activity versus comparator: 29 versus 32, 19 versus 25; for reduced activity compared to ouabain: Na,K-ATPase α4 inhibition; for IC50 for Na,K-ATPase α4 inhibition (Figure 1): recombinant rat α4, mean of two experiments in quadruplicate
Chain of Na,K-ATPase α4 (Q64541 whole entry, other chains not shown): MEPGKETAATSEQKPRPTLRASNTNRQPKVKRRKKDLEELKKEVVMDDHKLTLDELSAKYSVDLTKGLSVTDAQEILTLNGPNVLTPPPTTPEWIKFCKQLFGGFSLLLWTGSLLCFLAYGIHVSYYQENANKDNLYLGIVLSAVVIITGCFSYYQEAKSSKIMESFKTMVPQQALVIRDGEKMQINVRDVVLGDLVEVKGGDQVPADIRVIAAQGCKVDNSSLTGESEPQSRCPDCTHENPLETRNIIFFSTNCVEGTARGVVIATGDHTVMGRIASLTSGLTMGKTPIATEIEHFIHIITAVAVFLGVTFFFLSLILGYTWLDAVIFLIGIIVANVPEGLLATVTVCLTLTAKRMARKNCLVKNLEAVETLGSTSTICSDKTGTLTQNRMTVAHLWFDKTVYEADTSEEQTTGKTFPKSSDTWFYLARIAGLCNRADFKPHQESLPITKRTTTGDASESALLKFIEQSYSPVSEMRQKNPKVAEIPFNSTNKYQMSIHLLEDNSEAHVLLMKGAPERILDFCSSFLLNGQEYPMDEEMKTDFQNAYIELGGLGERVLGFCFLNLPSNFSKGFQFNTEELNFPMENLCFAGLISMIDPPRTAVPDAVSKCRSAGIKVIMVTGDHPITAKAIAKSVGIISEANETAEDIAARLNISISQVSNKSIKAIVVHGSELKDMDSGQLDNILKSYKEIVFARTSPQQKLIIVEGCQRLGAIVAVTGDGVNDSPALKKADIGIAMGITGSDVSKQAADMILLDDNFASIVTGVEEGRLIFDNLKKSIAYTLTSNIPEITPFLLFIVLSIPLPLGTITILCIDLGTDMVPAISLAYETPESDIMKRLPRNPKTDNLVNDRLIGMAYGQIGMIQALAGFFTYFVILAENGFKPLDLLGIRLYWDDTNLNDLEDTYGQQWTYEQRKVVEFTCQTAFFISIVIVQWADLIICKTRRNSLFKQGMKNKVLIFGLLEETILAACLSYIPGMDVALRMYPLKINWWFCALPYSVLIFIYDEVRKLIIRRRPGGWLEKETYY

rat sperm [1] = test: Sperm intracellular Ca2+, Calcium Green; format: cell-based; conditions: 10^–8 M, 1 h
hERG = hERG (Homo sapiens, UniProt Q12809); test: hERG competitive displacement fluorescence polarization assay
Chain of hERG (Q12809 whole entry): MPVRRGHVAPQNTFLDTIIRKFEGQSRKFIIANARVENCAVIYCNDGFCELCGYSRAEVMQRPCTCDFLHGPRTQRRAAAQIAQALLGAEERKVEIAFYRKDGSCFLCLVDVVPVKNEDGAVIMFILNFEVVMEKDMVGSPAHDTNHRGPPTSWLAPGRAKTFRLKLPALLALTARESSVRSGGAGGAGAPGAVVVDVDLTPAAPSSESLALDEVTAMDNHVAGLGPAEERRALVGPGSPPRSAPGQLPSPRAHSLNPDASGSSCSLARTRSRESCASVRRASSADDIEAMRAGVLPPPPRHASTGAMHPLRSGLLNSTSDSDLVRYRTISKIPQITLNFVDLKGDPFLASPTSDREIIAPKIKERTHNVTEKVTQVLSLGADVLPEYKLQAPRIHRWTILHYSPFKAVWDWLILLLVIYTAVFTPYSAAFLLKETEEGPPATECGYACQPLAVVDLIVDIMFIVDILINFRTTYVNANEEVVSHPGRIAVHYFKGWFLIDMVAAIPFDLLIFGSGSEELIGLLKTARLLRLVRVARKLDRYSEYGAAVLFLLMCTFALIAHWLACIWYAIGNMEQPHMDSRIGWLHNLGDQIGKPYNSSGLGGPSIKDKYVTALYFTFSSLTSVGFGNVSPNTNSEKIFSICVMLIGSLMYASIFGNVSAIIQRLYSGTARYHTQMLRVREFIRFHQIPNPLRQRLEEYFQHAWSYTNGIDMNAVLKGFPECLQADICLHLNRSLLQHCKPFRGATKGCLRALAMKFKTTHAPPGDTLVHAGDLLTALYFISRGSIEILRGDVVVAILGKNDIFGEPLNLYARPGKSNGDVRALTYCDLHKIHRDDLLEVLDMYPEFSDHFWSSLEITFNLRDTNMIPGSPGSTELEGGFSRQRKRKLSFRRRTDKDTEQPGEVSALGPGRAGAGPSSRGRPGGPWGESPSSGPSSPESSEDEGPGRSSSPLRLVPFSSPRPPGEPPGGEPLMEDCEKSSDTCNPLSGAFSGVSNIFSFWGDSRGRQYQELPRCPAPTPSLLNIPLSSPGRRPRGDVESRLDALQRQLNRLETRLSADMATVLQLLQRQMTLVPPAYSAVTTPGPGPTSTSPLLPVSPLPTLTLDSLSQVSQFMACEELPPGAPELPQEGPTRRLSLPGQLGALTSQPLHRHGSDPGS

rat sperm [2] = test: Sperm intracellular pH, SNARF-1; format: cell-based; conditions: 10^–8 M, 1 h
rat sperm [3] = test: Rat sperm motility in vitro; format: cell-based; conditions: for maximum reduction of sperm motility: even at high concentrations
rat sperm [4] = test: Sperm membrane potential; format: cell-based; conditions: 10^–8 M, 1 h
[5] = General toxicity in treated rats; format: in vivo, rat; conditions: oral gavage, 5–20 mg/kg
rat sperm [6] = test: Sperm hyperactivated motility under capacitating conditions; conditions: 10^–8 M, 1 h, capacitating medium
human Na,K-ATPase α4 = conditions: human isoforms; cited from earlier work

In the case of `COc1ccc(-c2cn(C[C@H]3CC[C@]4(O)[C@@H]5CC[C@]6(O)C[C@@H](O)C[C@@H](O)[C@]6(CO)[C@H]5[C@H](O)C[C@]34C)nn2)cc1` [Compound 19, (1R,3S,5S,8R,9S,10R,11R,13R,14S,17S)-10-(Hydroxymethyl)-17-((4-(4-methoxyphenyl)-1H-1,2,3-triazol-1-yl)methyl)-13-methyltetradecahydro-5H-cyclopenta[a]phenanthrene-1,3,5,11,14(2H)-pentaol], the “loss of Na,K-ATPase α4 inhibitory activity versus comparator” value (Na,K-ATPase α4) is reported as 7 orders of magnitude.

For `C[C@]12C[C@@H](O)[C@H]3[C@@H](CC[C@]4(O)C[C@@H](O)C[C@@H](O)[C@]34CO)[C@@]1(O)CCC2c1cn(Cc2ccc(F)cc2)nn1` (mixture of isomers) [Compound 27, (1R,3S,5S,8R,9S,10R,11R,13R,14S,17S)-17-(1-(4-Fluorobenzyl)-1H-1,2,3-triazol-4-yl)-10-(hydroxymethyl)-13-methyltetradecahydro-5H-cyclopenta[a]phenanthrene-1,3,5,11,14(2H)-pentaol], the IC50 (Na,K-ATPase α4) was 0.03 µM.

With `C[C@]12C[C@@H](O)[C@H]3[C@@H](CC[C@]4(O)C[C@@H](O)C[C@@H](O)[C@]34CO)[C@@]1(O)CC[C@@H]2c1cn(Cc2ccccc2)nn1` [Compound 25, (1R,3S,5S,8R,9S,10R,11R,13R,14S,17S)-17-(1-Benzyl-1H-1,2,3-triazol-4-yl)-10-(hydroxymethyl)-13-methyltetradecahydro-5H-cyclopenta[a]phenanthrene-1,3,5,11,14(2H)-pentaol] the “increase of [Ca2+]i in sperm” value (rat sperm [1]) was “approximately 40%”, the IC50 (hERG) was greater than 60 µM and the “effect on sperm intracellular pH” value (rat sperm [2]) was “caused intracellular sperm acidification”. The “decrease of total sperm motility” value (rat sperm [3]; 10^–8 M and higher, 1 h incubation) was “approximately 60%”, the “effect on other parameters of sperm movement (progressive motility, velocities, linearity, beat cross frequency)” value (“effect on other parameters” below) (rat sperm [3]; 1 h incubation) was “directly block all parameters of sperm movement” and the “maximum reduction of sperm motility” value (rat sperm [3]) was 50–60%. For the same compound, the “increase of sperm Vm (plasma membrane depolarization)” value (rat sperm [4]) was “approximately 40%”, the “toxic effect on treated rats” value [5] was “did not exert any major toxic effect” and the “reduction of hyperactivation accompanying sperm capacitation” value (rat sperm [6]) was “approximately 70%”.

For `COCO[C@H]1C[C@H]2OC(C)(C)OC[C@]23[C@@H]2[C@@H](CC[C@]3(O)C1)[C@@]1(OCOC)CC[C@H](C(=O)O)[C@@]1(C)C[C@H]2OCOC` [Compound 32, (3S,3aR,5R,5aS,5bR,9aR,11S,12aS,14aR,14bS)-12a-Hydroxy-5,11,14b-tris(methoxymethoxy)-3a,8,8-trimethylhexadecahydro-6H-cyclopenta[7,8]phenanthro[4,4a-d][1,3]dioxine-3-carboxylic Acid], the “reduced activity compared to ouabain” value (Na,K-ATPase α4) was “about 10 fold”.

With `COCO[C@H]1C[C@H]2OC(C)(C)OC[C@]23[C@@H]2[C@@H](CC[C@]3(O)C1)[C@@]1(OCOC)CC[C@H](C#N)[C@@]1(C)C[C@H]2OCOC` [Compound 29, (3S,3aR,5R,5aS,5bR,9aR,11S,12aS,14aR,14bS)-12a-Hydroxy-5,11,14b-tris(methoxymethoxy)-3a,8,8-trimethylhexadecahydro-6H-cyclopenta[7,8]phenanthro[4,4a-d][1,3]dioxine-3-carbonitrile] the “loss of Na,K-ATPase α4 inhibitory activity versus comparator” value (Na,K-ATPase α4) was 3 orders of magnitude.

For `C[C@]12CC[C@H]3[C@@H](CC[C@]4(O)C[C@@H](O)CC[C@]34C=O)[C@@]1(O)CC[C@@H]2C1=CC(=O)OC1` [strophanthidin, reference compound], the “IC50 for Na,K-ATPase α4 inhibition (Figure 1)” value (Na,K-ATPase α4) was 10^–8 to 10^–9 M.

With `COCO[C@@H]1[C@H]2OC(C)(C)O[C@H]2[C@H](O[C@H]2C[C@H]3OC(C)(C)OC[C@]34[C@@H]3[C@@H](CC[C@]4(O)C2)[C@@]2(O)CC[C@H](C#N)[C@@]2(C)C[C@H]3OCOC)O[C@H]1C` [Compound 11, (3S,3aR,5R,5aS,5bR,9aR,11S,12aS,14aR,14bS)-12a,14b-Dihydroxy-5-(methoxymethoxy)-11-(((3aR,4R,6S,7S,7aR)-7-(methoxymethoxy)-2,2,6-trimethyltetrahydro-4H-[1,3]dioxolo[4,5-c]pyran-4-yl)oxy)-3a,8,8-trimethylhexadecahydro-6H-cyclopenta[7,8]phenanthro[4,4a-d][1,3]dioxine-3-carbonitrile] the “reduced activity compared to ouabain” value (Na,K-ATPase α4) was “about 10 fold”.

In the case of `CO[C@H]1C[C@H](O[C@H]2CC[C@]3(C=O)[C@H]4CC[C@]5(C)[C@@H](C6=CC(=O)OC6)CC[C@]5(O)[C@@H]4CC[C@]3(O)C2)O[C@H](C)[C@H]1O` [cymarin, reference compound], the “IC50 for Na,K-ATPase α4 inhibition (Figure 1)” value (Na,K-ATPase α4) is reported as 10^–8 to 10^–9 M.

For `COCO[C@H]1C[C@H]2OC(C)(C)OC[C@]23[C@@H]2[C@@H](CC[C@]3(O)C1)[C@@]1(OCOC)CC[C@H](CO)[C@@]1(C)C[C@H]2OCOC` [Compound 17, (3S,3aR,5R,5aS,5bR,9aR,11S,12aS,14aR,14bS)-3-(Hydroxymethyl)-5,11,14b-tris(methoxymethoxy)-3a,8,8-trimethyltetradecahydro-6H-cyclopenta[7,8]phenanthro[4,4a-d][1,3]dioxin-12a(1H)-ol], the IC50 (hERG) was greater than 60 µM, the “effect on other parameters” value (rat sperm [3]; 1 h incubation) was “directly block all parameters of sperm movement” and the “maximum reduction of sperm motility” value (rat sperm [3]) was 50–60%.

In the case of `COCO[C@@H]1[C@H]2OC(C)(C)O[C@H]2[C@H](O[C@H]2C[C@H]3OC(C)(C)OC[C@]34[C@@H]3[C@@H](CC[C@]4(O)C2)[C@@]2(O)CC[C@H](CO)[C@@]2(C)C[C@H]3OCOC)O[C@H]1C` [Compound 10, (3S,3aR,5R,5aS,5bR,9aR,11S,12aS,14aR,14bS)-3-(Hydroxymethyl)-5-(methoxymethoxy)-11-(((3aR,4R,6S,7S,7aR)-7-(methoxymethoxy)-2,2,6-trimethyltetrahydro-4H-[1,3]dioxolo[4,5-c]pyran-4-yl)oxy)-3a,8,8-trimethyltetradecahydro-6H-cyclopenta[7,8]phenanthro[4,4a-d][1,3]dioxine-12a,14b-diol], the IC50 (hERG) is reported as greater than 60 µM, the “effect on other parameters” value (rat sperm [3]; 1 h incubation) is reported as “directly block all parameters of sperm movement” and the “maximum reduction of sperm motility” value (rat sperm [3]) is reported as 50–60%.

For `C[C@@H]1O[C@@H](O[C@H]2C[C@@H](O)[C@]3(CO)[C@H]4[C@H](O)C[C@]5(C)[C@@H](C6=CC(=O)OC6)CC[C@]5(O)[C@@H]4CC[C@]3(O)C2)[C@H](O)[C@H](O)[C@H]1O` [ouabain], the “sensitivity to ouabain, human Na,K-ATPase α4 versus α1” value (human Na,K-ATPase α4) is listed as roughly 100 fold.
